In one test the test system is implanted liver. Conditions: added to liver preservation solution; rat liver transplantation model; cited from earlier work.
The next test has as its system dogs and cats. Conditions: cited from earlier work.
For test [1], the system named is porcine of which liver was replaced by transplantation. Conditions: intraportal administration; cited from earlier work.
Test [2] deals with rat isolated liver. Kind of test: Test Example 4: bile flow of rat isolated liver, compound added to preservation solution. Conditions: 10 μM added to U-W preservation solution, 4° C., 16 hours storage; 40 minutes reperfusion. From the text:
Male Wister Rats were anesthetized with pentobarital sodium and hepatic-portal region was exposed by abdominal midline incision. The common bile duct was cannulated and the portal stem was inserted with a 19 gauge surflo® needle equipped with a three way stopcock. […] Treitz' ligament, the ligament around the liver, and diaphragm were cut and the liver was removed to the outside of the body and subjected to extracoporeal perfusion. The liver was subjected to a fifteen minutes of pre-perfusion until its oxygen consumption achieved to constant and then, the perfusate was exchanged with University of Wisconsin solution (U-W solution) at 4° C. Immediately after finish of the exchange, the liver connected with the three-way stopcock was removed from the perfusion cycle and the inlet was clamped. Then the liver was putted into the U-W solution at the same temperature and stored for 16 hours. […] During the reperfusion period, bile flow was determined every 5 minutes.
In the above perfusion protocol, 10 μM of test compound 1 or test compound 2 (13,14-dihydro-15-keto-16,16-difluoro-17(R)-methyl-prostaglandin E1) were added to the U-W solution to determine the effects of these drugs on recovery of bile flow.

Test [3] has as its system rat isolated liver. The test is described as follows: Test Example 5: bile flow of cold preserved rat isolated liver, compound added to rinse solution. Conditions: added to Krebs-Ringer rinse solution perfused for 40 minutes after 16-hour cold storage. As for the experimental part:
The perfusion protocol of the Test Example 4 was repeated except for the test compound 1 and the test compound 2 were added to the Krebs-Ringer solution, i.e. the rinse solution perfused for 40 minute's to determine the recovery of the bile flow.

The next test deals with normal rats. Kind of test: Test Example 1: bile flow in normal rats after oral administration. It counts as in vivo, rat. Conditions: 100 μg/kg orally 3 times a day for 7 days; bile collected on day 8, 1 to 2 hours after cannulation; vs vehicle. How it is done:
Male Wister rats were used. 100 μg/kg of test compound 1 (13,14-dihydro-15-keto-16, 16-difluoro-18(S)-methyl-prostaglandin E1) was administered orally to the test group animals (n=8) 3 times a day for 7days. To the control group animals (n=7), the same volume of the vehicle, i.e. 0.01% polysorbate 80, 0.5% ethanol in distilled water was administered. At the next day after the final administration (day 8), the common bile duct of the respective rat was cannulated under ether anesthesia and the rat was placed in ball man gauge for 1 hour to recover from anesthesia. The bile discharged over one hour time period, i.e. from 1 to 2 hours of the cannulation, was collected and determined bile flow.

Another test concerns perfused rat liver. Kind of test: Test Example 2: bile flow of isolated perfused rat liver. As for the experimental part: Male Wister rats were used. Each rat was cannulated for collection of bile under pentobarbital sodium anesthesia. A catheter was inserted and fixed in the portal vein. Krebs-Ringer solution saturated with 95% O2 and 5% CO2 (pH 7.4, 37° C.) was infused via the catheter at a constant flow rate of 4.0 ml/min/g liver weight by means of peristaltic pump to perfuse the liver. The liver was removed under perfusion. In case where the bile secretion was necessary to maintain being the physiological level, the liver was perfused with Krebs-Ringer solution supplemented with sodium taurocolate (30 μmol/l). For the test group animals, the test compound 1 was added to the Krebs-Ringer solution. Bile of the each animals including test and control groups was collected in every 5 minutes.

For test [4], the system named is anoxia/re-oxygenation perfused rat liver. Kind of test: Test Example 3: bile flow recovery of anoxia/re-oxygenation perfused rat liver. Conditions: 10 μM added at re-oxygenation after 20 minutes of anoxia; vs vehicle. How it is done:
Isolated perfused liver sample was prepared by the same manner as described in the test example 2. Each livers of test and control groups was perfused with Krebs-Ringer solution saturated with 95% N2 and 5% CO2 for 20 minutes to expose the liver oxygen-free condition. After that, Krebs-Ringer solution saturated with 95% O2 and 5% CO2 was perfused to re-oxygenize the liver. At the re-oxygenization step, 10 μM of the test compound 1 was added to the Krebs-Ringer solution for the test group.

The text below walks through data of patent publication US6469062B2, “Use of 15-keto-prostaglandins in promoting bile secretion” (Sucampo A.G., priority 2000, dated 2002).

For the compound `CCCC[C@H](C)C[C@H](O)/C=C/[C@@H]1C2CC(CCCCC(=O)O)=CC2C[C@H]1O` (stereo partly shown) [TEI-9063], the “bile producing activity of the implanted liver” value with implanted liver was “improved bile producing activity”.

Take `CCCCC[C@H](O)/C=C/[C@@H]1[C@H]2C/C(=C/CCCC(=O)O)O[C@H]2C[C@H]1O` [prostacyclin]: the cholagogic effect result in the test with dogs and cats was “cholagogic effect”.

As to `CCCCC[C@H](O)/C=C/[C@H]1[C@H](O)CC(=O)[C@@H]1CCCCCCC(=O)O` [PGE1, prostaglandin E1], the cholagogic effect result in the test on dogs and cats is listed as “cholagogic effect”. The bile flow result in test [1] is “increased the bile flow”.

`CCCC(C)C(F)(F)C(=O)CCC1C(O)CC(=O)C1CCCCCCC(=O)O` [test compound 2, 13,14-dihydro-15-keto-16,16-difluoro-17(R)-methyl-prostaglandin E1]: the “bile flow at the reperfusion step” value in the test on rat isolated liver [2] was “increased the bile flow at the reperfusion step significantly”. In addition, in the test with rat isolated liver [3], the “bile flow in reperfusion of cold preserved rat liver” value is “significantly increased”.

Take `CCCCC[C@H](O)/C=C/[C@@H]1[C@@H](C/C=C\CCCC(=O)O)[C@@H](O)C[C@H]1O` [PGF2a]: the cholagogic effect result in the test on dogs and cats was “cholagogic effect”.

In the case of `CCCCC[C@H](O)/C=C/[C@H]1C=CC(=O)[C@@H]1CCCCCCC(=O)O` [PGA1], in the test on dogs and cats, the cholagogic effect result is given as “cholagogic effect”.

Take `CCCCC[C@H](O)/C=C/[C@H]1[C@H](O)CC(=O)[C@@H]1C/C=C\CCCC(=O)O` [PGE2]: in the test with dogs and cats, the cholagogic effect result is given as “cholagogic effect”.

As to `CC[C@H](C)CC(F)(F)C(=O)CC[C@H]1[C@H](O)CC(=O)[C@@H]1CCCCCCC(=O)O` [test compound 1, 13,14-dihydro-15-keto-16,16-difluoro-18(S)-methyl-prostaglandin E1], the “normal rat bile flow” value in the test on normal rats is recorded as “significantly increased”. Also, the “bile flow of the perfused rat liver” value in the test on perfused rat liver (compound added to Krebs-Ringer perfusate) is on record as “significantly increased bile flow”. In addition, in the test with perfused rat liver (under the presence of bile acid (sodium taurocolate 30 μmol/l)), the “cholagogic effect, dose dependence” value is listed as “dose dependent cholagogic effect”. Further, the “bile flow, presence (TC(+)) or absence (TC(−)) of bile acid” value in the test on perfused rat liver (with or without bile acid in the perfusate) is reported as “increased the bile flow irrespective of the presence or absence of bile acid”. Besides, the “bile flow recovery after anoxia/re-oxygenation” value in test [4] is reported as “significantly increased the bile flow”. Besides, the “bile flow at the reperfusion step” value in the test on rat isolated liver [2] is “increased the bile flow at the reperfusion step significantly”. The “bile flow in reperfusion of cold preserved rat liver” value in the test with rat isolated liver [3] is “significantly increased”.
